The source made the active and inactive calls. The rule behind the calls is not given here.
How the values were obtained:
[1] = tested on: NCI-H1299; test: cells; details: Homo sapiens, NCI-H1299, 48 h
Description: Antiproliferative activity against human NCI-H1299 cells assessed as inhibition of cell growth incubated for 48 hrs by MTT assay

[2] = target: Dual specificity protein kinase CLK3 (Homo sapiens, UniProt P49761); test: Inhibition of CLK3 (unknown origin) by ADP-Glo assay
[3] = target: T1, Dual specificity protein kinase CLK2 (Homo sapiens, UniProt P49760); details: dose 20.0 nM
Target sequence in this assay (P49760 whole entry, looked up): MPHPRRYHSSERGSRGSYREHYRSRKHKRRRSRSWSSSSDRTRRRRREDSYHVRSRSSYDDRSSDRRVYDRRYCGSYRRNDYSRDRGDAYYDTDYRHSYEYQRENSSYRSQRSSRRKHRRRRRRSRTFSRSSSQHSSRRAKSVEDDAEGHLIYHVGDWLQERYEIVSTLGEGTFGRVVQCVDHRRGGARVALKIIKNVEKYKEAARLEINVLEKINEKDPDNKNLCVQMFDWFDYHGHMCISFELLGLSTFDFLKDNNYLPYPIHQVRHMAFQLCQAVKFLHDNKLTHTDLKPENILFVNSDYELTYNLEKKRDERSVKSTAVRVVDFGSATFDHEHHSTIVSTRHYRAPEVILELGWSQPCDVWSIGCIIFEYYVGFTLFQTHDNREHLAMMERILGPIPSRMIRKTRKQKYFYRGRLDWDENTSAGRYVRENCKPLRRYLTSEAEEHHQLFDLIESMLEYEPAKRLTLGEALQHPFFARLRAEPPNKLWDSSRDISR
Description: Inhibition of CLK2 (unknown origin) at 20 nM by ADP-Glo assay relative to control

[4] = tested on: HCC827; test: cells; details: Homo sapiens, HCC827, 48 h
Description: Antiproliferative activity against human HCC827 cells assessed as inhibition of cell growth incubated for 48 hrs by MTT assay

[5] = tested on: Osimertinib-resistant NCI-H1975 cell; test: cells; details: Homo sapiens, 48 h
Description: Antiproliferative activity against human Osimertinib-resistant NCI-H1975 cell assessed as inhibition of cell growth incubated for 48 hrs by MTT assay

[6] = tested on: NCI-H1975; test: cells; details: Homo sapiens, NCI-H1975, 48 h
Description: Antiproliferative activity against human NCI-H1975 cells assessed as inhibition of cell growth incubated for 48 hrs by MTT assay

[7] = tested on: A549; test: cells; details: Homo sapiens, A549, 48 h
Description: Antiproliferative activity against human A549 cells assessed as inhibition of cell growth incubated for 48 hrs by MTT assay

[8] = tested on: NCI-H1299; test: Inhibition of colony formation in human NCI-H1299 cells at 1 uM incubated for 7 days by crystal violet staining based analysis; assay type: functional, cell-based; details: time 7.0 day
[9] = cells; details: Homo sapiens, Osimertinib-resistant HCC827AR cell, 48 h
Description: Antiproliferative activity against human Osimertinib-resistant HCC827AR cell assessed as inhibition of cell growth incubated for 48 hrs by MTT assay

[10] = target: T1, Dual specificity protein kinase CLK2; test: Inhibition of CLK2 (unknown origin) by ADP-Glo assay
Target sequence in this assay (P49760 whole entry): as the sequence (P49760 whole entry, looked up) above

Dual specificity protein kinase CLK3, sequence (P49761 whole entry): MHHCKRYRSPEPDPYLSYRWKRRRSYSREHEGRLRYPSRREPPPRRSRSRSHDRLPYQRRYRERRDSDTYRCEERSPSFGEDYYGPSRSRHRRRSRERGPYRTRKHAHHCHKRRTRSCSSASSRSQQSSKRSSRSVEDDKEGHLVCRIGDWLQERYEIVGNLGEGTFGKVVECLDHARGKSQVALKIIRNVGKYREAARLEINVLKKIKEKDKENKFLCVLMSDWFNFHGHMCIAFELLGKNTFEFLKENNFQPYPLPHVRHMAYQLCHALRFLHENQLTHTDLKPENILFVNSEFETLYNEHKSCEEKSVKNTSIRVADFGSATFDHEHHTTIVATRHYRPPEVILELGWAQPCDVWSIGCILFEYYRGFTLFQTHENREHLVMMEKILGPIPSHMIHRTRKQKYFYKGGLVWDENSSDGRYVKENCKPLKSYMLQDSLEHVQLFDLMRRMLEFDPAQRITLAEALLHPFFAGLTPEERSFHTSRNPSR

SMILES	IC50 [1] [nM]	also measured
CC(C)C[C@H](N)COc1cncc(-c2ccc3[nH]nc(-c4nc(-c5ccco5)c(-c5ccco5)[nH]4)c3c2)c1	1680	–
CC(C)C[C@H](N)COc1cncc(-c2ccc3[nH]nc(-c4nc(-c5cccc(C(F)(F)F)c5)c[nH]4)c3c2)c1	1160	–
CC(C)C[C@H](N)COc1cncc(-c2ccc3[nH]nc(-c4nc(-c5ccco5)c[nH]4)c3c2)c1	480	–
FC1(F)CCN(Cc2cncc(-c3ccc4[nH]nc(-c5nc(-c6cccnc6)c[nH]5)c4c3)c2)C1	260	–
CC(C)CC(=O)Nc1cncc(-c2ccc3[nH]nc(-c4nc(-c5cccnc5)c[nH]4)c3c2)c1	820	–
FC1(F)CCN(Cc2cncc(-c3ccc4[nH]nc(-c5nc(-c6ccsc6)c[nH]5)c4c3)c2)C1	1380	–
CC(C)CC(=O)Nc1cncc(-c2ccc3[nH]nc(-c4nc(-c5ccco5)c(-c5ccco5)[nH]4)c3c2)c1	1530	–
Cc1[nH]nc2ccc(-c3cncc(OC[C@@H](N)CC(C)C)c3)cc12	2510	IC50 [2]: > 100 nM; inhibition [3]: 98.5%; IC50 [4]: 3.95 µM; IC50 [5]: 1920 nM; IC50 [6]: 1720 nM; IC50 [7]: 3.95 µM; inhibition [8]: inactive; IC50 [9]: 3.67 µM; IC50 [10]: 4.1 nM
Cc1nc(-c2n[nH]c3ccc(-c4cncc(NC(=O)CC(C)C)c4)cc23)[nH]c1-c1ccccc1	1380	–
CC(C)C[C@H](N)COc1cncc(-c2ccc3[nH]nc(-c4nc(-c5ccsc5)c[nH]4)c3c2)c1	1150	–
CCc1[nH]c(-c2n[nH]c3ccc(-c4cncc(NC(=O)CC(C)C)c4)cc23)nc1C	1620	–
FC1(F)CCN(Cc2cncc(-c3ccc4[nH]nc(-c5nc(-c6ccccc6)c(-c6ccccc6)[nH]5)c4c3)c2)C1	6580	–
FC1(F)CCN(Cc2cncc(-c3ccc4[nH]nc(-c5nc(-c6ccco6)c[nH]5)c4c3)c2)C1	720	–
CC(C)C[C@H](N)COc1cncc(-c2ccc3[nH]nc(-c4nc(-c5ccccc5)c(-c5ccccc5)[nH]4)c3c2)c1	2380	–
Cc1nc(-c2n[nH]c3ccc(-c4cncc(OC[C@@H](N)CC(C)C)c4)cc23)[nH]c1-c1ccccc1	450	–
CC(C)CC(=O)Nc1cncc(-c2ccc3[nH]nc(-c4nc(-c5ccco5)c[nH]4)c3c2)c1	1420	–
FC1(F)CCN(Cc2cncc(-c3ccc4[nH]nc(-c5nc(-c6cccc(C(F)(F)F)c6)c[nH]5)c4c3)c2)C1	2660	–
CC(C)CC(=O)Nc1cncc(-c2ccc3[nH]nc(-c4nc(-c5ccsc5)c[nH]4)c3c2)c1	910	–
CC(C)C[C@H](N)COc1cncc(-c2ccc3[nH]nc(-c4nc(-c5cccnc5)c[nH]4)c3c2)c1	700	–
CC(C)CC(=O)Nc1cncc(-c2ccc3[nH]nc(-c4nc(-c5cccc(C(F)(F)F)c5)c[nH]4)c3c2)c1	3070	–
Cc1nc(-c2n[nH]c3ccc(-c4cncc(CN5CCC(F)(F)C5)c4)cc23)[nH]c1-c1ccccc1	1620	–
FC1(F)CCN(Cc2cncc(-c3ccc4[nH]nc(-c5nc(-c6ccccc6)c[nH]5)c4c3)c2)C1	1270	–

Source: ChEMBL document CHEMBL6092179, “Discovery of CLKs inhibitors for the treatment of non-small cell lung cancer” (Eur J Med Chem, 2024)
